In patent publication US20240315994A1, “SMALL MOLECULE MODULATORS OF FERROPTOSIS” (ARPEGGIO BIOSCIENCES, INC., priority 2021, published 2024):

Test system: HT1080 cells (ATCC, cat #CCL-121)
Assay: HT1080 CellTiter-Glo 2.0 IC50 assay of working examples
Format: cell-based
Settings: HT-1080, 24 hrs, cells plated with and without 1.5 μM ferrostatin-1, table does not say which, Table 7
Protocol: Biological evaluation of working examples A1-A47 and B1-B28 was performed in HT1080 cells (ATCC, cat #CCL-121) according to the procedure provided below.
• 1.1 Cells were harvested from flask into cell culture medium and then the cell number count was determined. • 1.2 The cells were suspended with 1.5 μM ferrostatin-1 and without ferrostatin-1. • 1.3 Cells were plated at a density of 1,500 cells per well in a 384-well black sided clear bottom plate, in 25 μL, using electronic multichannel pipette. • 1.4 Plates were covered with lid and spun for 1 min at 1000 rpm, then allowed to incubate overnight at 37° C. under 5% CO2.
• 2.1 Compounds were dissolved at 10 mM stock solution and 10 μl of diluted solution was transferred to a 384 LDV-plate (LABCYTE, LP-0200). A 3 fold, 11-point dilution was performed. • 2.2 Cells were treated with compounds by plate reformat Echo software and spun for 1 min at 1000 rpm. Then incubated at 37° C. for 24 hrs in a CO2 incubator.
• 3.1 The plates were removed from the incubator and allowed to equilibrate to room temperature, at least 30 minutes. • 3.2 CellTiter-Glo® 2.0 Reagent (Promega, G9242) was added (25 μL) to the assay plates and spun for 1 min at 1000 rpm. Then allowed to stand for about 20 minutes before reading luminescence signal on Envision. • 3.3 The IC50 calculations were determined with a nonlinear fit, variable slope (four parameters) log(inhibitor) vs. response model using GraphPad PRISM.

IC50 [nM]	Compound
1000 to 10000	O=C(CCl)N(Cc1ccc(F)cc1)c1cc(F)cc(F)c1 [Compound A15, 2-chloro-N-(3,5-difluorophenyl)-N-[(4-fluorophenyl)methyl]acetamide]
10 to 100	Cc1cccc(CN(C(=O)CCl)c2cc(C)cc(C)c2)c1 [Compound A8, 2-chloro-N-(3,5-dimethylphenyl)-N-(m-tolylmethyl)acetamide]
> 10000	Cc1ccc(N(Cc2ccc(F)cc2)C(=O)CCl)cn1 [Compound A47, 2-chloro-N-[(4-fluorophenyl)methyl]-N-(6-methyl-3-pyridyl)acetamide]
10 to 100	COc1cc(OC)cc(N(Cc2cc(C#N)ccc2F)C(=O)CCl)c1 [Compound A28, 2-chloro-N-[(5-cyano-2-fluoro-phenyl)methyl]-N-(3,5-dimethoxyphenyl)acetamide]
1000 to 10000	COc1ccc(N(Cc2ccc(F)cc2)C(=O)CCl)c(C#N)c1 [Compound A36, 2-chloro-N-(2-cyano-4-methoxy-phenyl)-N-[(4-fluorophenyl)methyl]acetamide]
100 to 1000	COc1cc(OC)cc(N(Cc2ccc(O)cc2)C(=O)CCl)c1 [Compound A24, 2-chloro-N-(3,5-dimethoxyphenyl)-N-[(4-hydroxyphenyl)methyl]acetamide]
100 to 1000	O=C(CCl)N(Cc1ccc(F)cc1)c1cccc(Cl)c1 [Compound A18, 2-chloro-N-(3-chlorophenyl)-N-[(4-fluorophenyl)methyl]acetamide]
100 to 1000	Cc1cc(C)cc(N(Cc2ccc(Cl)cc2)C(=O)CCl)c1 [Compound A4, 2-chloro-N-[(4-chlorophenyl)methyl]-N-(3,5-dimethylphenyl)acetamide]
10 to 100	COc1cc(OC)cc(N(Cc2ccc(C#N)cc2)C(=O)CCl)c1 [Compound A19, 2-chloro-N-[(4-cyanophenyl)methyl]-N-(3,5-dimethoxyphenyl)acetamide]
10 to 100	COc1cc(OC)cc(N(Cc2cccc3nsnc23)C(=O)CCl)c1 [Compound A45, N-(2,1,3-benzothiadiazol-4-ylmethyl)-2-chloro-N-(3,5-dimethoxyphenyl)acetamide]
1000 to 10000	O=C(CCl)N(Cc1ccc(F)cc1)c1cnc2[nH]nc(Br)c2c1 [Compound A39, N-(3-bromo-1H-pyrazolo[3,4-b]pyridin-5-yl)-2-chloro-N-[(4-fluorophenyl)methyl]acetamide]
10 to 100	COc1cc(OC)cc(N(Cc2ccc(F)cc2Br)C(=O)CCl)c1 [Compound A23, N-[(2-bromo-4-fluoro-phenyl)methyl]-2-chloro-N-(3,5-dimethoxyphenyl)acetamide]
100 to 1000	COc1cc(Cl)cc(N(Cc2ccc(F)cc2)C(=O)CCl)c1 [Compound A14, 2-chloro-N-(3-chloro-5-methoxy-phenyl)-N-[(4-fluorophenyl)methyl]acetamide]
≤ 10	COc1cc(OC)cc(N(Cc2ccc(Br)c(F)c2F)C(=O)CCl)c1 [Compound A38, N-[(4-bromo-2,3-difluoro-phenyl)methyl]-2-chloro-N-(3,5-dimethoxyphenyl)acetamide]
100 to 1000	O=C(CCl)N(Cc1ccc(F)cc1)c1ccc2ncccc2c1 [Compound A22, 2-chloro-N-[(4-fluorophenyl)methyl]-N-(6-quinolyl)acetamide]
1000 to 10000	COc1cccc(F)c1N(Cc1ccc(F)cc1)C(=O)CCl [Compound A32, 2-chloro-N-(2-fluoro-6-methoxy-phenyl)-N-[(4-fluorophenyl)methyl]acetamide]
≤ 10	COc1cc(OC)cc(N(Cc2c(C)cc(F)cc2C)C(=O)CCl)c1 [Compound A30, 2-chloro-N-(3,5-dimethoxyphenyl)-N-[(4-fluoro-2,6-dimethyl-phenyl)methyl]acetamide]
100 to 1000	Cc1cc(C)cc(N(Cc2ccccc2Cl)C(=O)CCl)c1 [Compound A6, 2-chloro-N-[(2-chlorophenyl)methyl]-N-(3,5-dimethylphenyl)acetamide]
10 to 100	COc1ccc(CN(C(=O)CCl)c2cc(OC)cc(OC)c2)cc1 [Compound A21, 2-chloro-N-(3,5-dimethoxyphenyl)-N-[(4-methoxyphenyl)methyl]acetamide]
100 to 1000	O=C(CCl)N(Cc1ccc(F)cc1)C1CCCCC1 [Compound A12, 2-chloro-N-cyclohexyl-N-[(4-fluorophenyl)methyl]acetamide]
10 to 100	COc1cc(OC)cc(N(Cc2cccc(C(F)(F)F)c2F)C(=O)CCl)c1 [Compound A31, 2-chloro-N-(3,5-dimethoxyphenyl)-N-[[2-fluoro-3-(trifluoro-methyl)phenyl]methyl]acetamide]
100 to 1000	Cc1c(Cl)ccc(N(Cc2ccc(F)cc2)C(=O)CCl)c1Cl [Compound A42, 2-chloro-N-(2,4-dichloro-3-methyl-phenyl)-N-[(4-fluorophenyl)methyl]acetamide]
100 to 1000	O=C(CCl)N(Cc1ccc(F)cc1)c1cc(Cl)cc(Cl)c1 [Compound A16, 2-chloro-N-(3,5-dichlorophenyl)-N-[(4-fluorophenyl)methyl]acetamide]
100 to 1000	COc1cc(N(Cc2ccc(F)cc2)C(=O)CCl)ccn1 [Compound A46, 2-chloro-N-[(4-fluorophenyl)methyl]-N-(2-methoxy-4-pyridyl)acetamide]
10 to 100	COc1ccccc1CN(C(=O)CCl)c1cc(C)cc(C)c1 [Compound A7, 2-chloro-N-(3,5-dimethylphenyl)-N-[(2-methoxyphenyl)methyl]acetamide]
100 to 1000	Cc1ccc(CN(C(=O)CCl)c2cc(C)cc(C)c2)cc1 [Compound A10, 2-chloro-N-(3,5-dimethylphenyl)-N-(p-tolylmethyl)acetamide]
100 to 1000	Cc1cc(C)cc(N(Cc2ccccc2C)C(=O)CCl)c1 [Compound A11, 2-chloro-N-(3,5-dimethylphenyl)-N-(o-tolylmethyl)acetamide]
10 to 100	COc1cccc(CN(C(=O)CCl)c2cc(C)cc(C)c2)c1 [Compound A5, 2-chloro-N-(3,5-dimethylphenyl)-N-[(3-methoxyphenyl)methyl]acetamide]

Compound	IC50 [nM]
COc1cc(OC)cc(N(Cc2ccc(F)cc2)C(=O)CCl)c1 [Compound A3, 2-chloro-N-(3,5-dimethoxyphenyl)-N-[(4-fluorophenyl)methyl]acetamide]	10 to 100

Same assay, conditions: HT-1080, 24 hrs, cells plated with and without 1.5 μM ferrostatin-1, table does not say which, Table 8

IC50 [nM]	Compound
10 to 100	Cc1cc(C)cc(N(C(=O)CI)c2nc(-c3ccc(Br)cc3)cs2)c1 [Compound B21, N-[4-(4-bromophenyl)thiazol-2-yl]-N-(3,5-dimethylphenyl)-2-iodo-acetamide]
100 to 1000	Cc1cc(C)cc(N(C(=O)CCl)c2nc(C3CCCCC3)cs2)c1 [Compound B10, 2-chloro-N-(4-cyclohexylthiazol-2-yl)-N-(3,5-dimethylphenyl)acetamide]
100 to 1000	Cc1cc(C)cc(N(C(=O)CCl)c2nc(-c3ccccc3)cs2)c1 [Compound B11, 2-chloro-N-(3,5-dimethylphenyl)-N-(4-phenylthiazol-2-yl)acetamide]
100 to 1000	COc1ccc(-c2csc(N(C(=O)CCl)c3cc(C)cc(C)c3)n2)cc1 [Compound B9, 2-chloro-N-(3,5-dimethylphenyl)-N-[4-(4-methoxyphenyl)thiazol-2-yl]acetamide]
100 to 1000	Cc1cc(C)cc(N(C(=O)CCl)c2nc(-c3cccc(Br)c3)cs2)c1 [Compound B12, N-[4-(3-bromophenyl)thiazol-2-yl]-2-chloro-N-(3,5-dimethylphenyl)acetamide]
> 10000	O=C(CCl)N(c1ccccc1)c1nc(-c2ccc(Br)cc2)cs1 [Compound B15, N-[4-(4-bromophenyl)thiazol-2-yl]-2-chloro-N-phenyl-acetamide]
> 10000	O=C(CCl)N(c1cc(F)cc(F)c1)c1nc(-c2ccc(Br)cc2)cs1 [Compound B25, N-[4-(4-bromophenyl)thiazol-2-yl]-2-chloro-N-(3,5-difluorophenyl)acetamide]
10 to 100	C#CC(=O)N(c1cc(Cl)cc(OC)c1)c1nc(-c2ccc(Br)cc2)cs1 [Compound B26, N-[4-(4-bromophenyl)thiazol-2-yl]-N-(3-chloro-5-methoxy-phenyl)prop-2-ynamide]
> 10000	C=C(F)C(=O)N(c1cc(C)cc(C)c1)c1nc(-c2ccc(Br)cc2)cs1 [Compound B23, N-[4-(4-bromophenyl)thiazol-2-yl]-N-(3,5-dimethylphenyl)-2-fluoro-prop-2-enamide]
> 10000	Cc1cc(C)cc(N(C(=O)C2CO2)c2nc(-c3ccc(Br)cc3)cs2)c1 (stereo not drawn) [Compound B28, N-[4-(4-bromophenyl)thiazol-2-yl]-N-(3,5-dimethylphenyl)oxirane-2-carboxamide]
> 10000	Cc1cccc(N(C(=O)CCl)c2nc(-c3ccc(Br)cc3)cs2)c1 [Compound B16, N-[4-(4-bromophenyl)thiazol-2-yl]-2-chloro-N-(m-tolyl)acetamide]
10 to 100	C#CC(=O)N(c1cc(Cl)cc(Cl)c1)c1nc(-c2ccc(Br)cc2)cs1 [Compound B22, N-[4-(4-bromophenyl)thiazol-2-yl]-N-(3,5-dichlorophenyl)prop-2-ynamide]

Compound	IC50 [nM]
Cc1cc(C)cc(N(C(=O)CF)c2nc(-c3ccc(Br)cc3)cs2)c1 [Compound B27, N-[4-(4-bromophenyl)thiazol-2-yl]-N-(3,5-dimethylphenyl)-2-fluoro-acetamide]	> 10000
